Laboratory results from patent US6441195B1, “Substituted sulphonylamino(thio) carbonyl compounds” (Bayer Aktiengesellschaft, priority 1995, dated 2002).

How the values were obtained:
Type in all cases: in vivo
Poa = assay: Pre-emergence test/Greenhouse, Poa; conditions: after three weeks
Protocol: (§1) To produce a suitable preparation of the active compound, 1 part by weight of active compound is mixed with the stated amount of solvent, the stated amount of emulsifier is added and the concentrate is diluted with water to the desired concentration.
(§2) Seeds of the test plants are sown in normal soil. After about 24 hours, the soil is watered with the preparation of active compound. Advantageously, the amount of water per unit area is kept constant. The active compound concentration in the preparation is not important, only the active compound appliation rate per unit area matters.
(§3) After three weeks, the degree of damage to the plants is rated in % damage in comparison to the development of the untreated control.
(§4) 0%=no action (like untreated control)

Solanum = assay: Pre-emergence test/Greenhouse, Solanum; conditions: after three weeks
Protocol: as §1, §2, §3, §4

Sorghum = assay: Pre-emergence test/Greenhouse, Sorghum; conditions: after three weeks
Protocol: as §1, §2, §3, §4

Ambrosia = assay: Pre-emergence test/Greenhouse, Ambrosia; conditions: after three weeks
Protocol: as §1, §2, §3, §4

Matricaria = assay: Pre-emergence test/Greenhouse, Matricaria; conditions: after three weeks
Protocol: as §1, §2, §3, §4

weeds = assay: Pre-emergence test (greenhouse), activity against weeds; conditions: in words
Protocol: Solvent: 5 parts by weight of acetone
Emulsifier: 1 part by weight of alkylaryl polyglycol ether
as §1, §2, §3, §4

Maize = assay: Pre-emergence test/Greenhouse, Maize; conditions: in vivo
Protocol: as §1, §2, §3, §4

Lolium = assay: Pre-emergence test/Greenhouse, Lolium; conditions: after three weeks
Protocol: as §1, §2, §3, §4

Soya beans = assay: Pre-emergence test/Greenhouse, Soya beans; conditions: in vivo
Protocol: as §1, §2, §3, §4

| SMILES | degree of damage to the plants (% damage vs untreated control), Poa (Poa; 125 g of ai./ha) [%] | degree of damage to the plants (% damage vs untreated control), Solanum (Solanum; 125 g of ai./ha) [%] | degree of damage to the plants (% damage vs untreated control), Sorghum (Sorghum; 125 g of ai./ha) [%] | degree of damage to the plants (% damage vs untreated control), Ambrosia (Ambrosia; 125 g of ai./ha) [%] | degree of damage to the plants (% damage vs untreated control), Matricaria (Matricaria; 125 g of ai./ha) [%] | activity against weeds (weeds) | degree of damage to the plants (% damage vs untreated control), Maize (Maize) [%] | degree of damage to the plants (% damage vs untreated control), Solanum (Solanum; 60 g of ai./ha) [%] | degree of damage to the plants (% damage vs untreated control), Sorghum (Sorghum; 60 g of ai./ha) [%] | degree of damage to the plants (% damage vs untreated control), Matricaria (Matricaria; 60 g of ai./ha) [%] | degree of damage to the plants (% damage vs untreated control), Lolium (Lolium; 60 g of ai./ha) [%] | degree of damage to the plants (% damage vs untreated control), Lolium (Lolium; 125 g of ai./ha) [%] | further results |
| --- | --- | --- | --- | --- | --- | --- | --- | --- | --- | --- | --- | --- | --- |
| CCCOc1nn(C(=O)NS(=O)(=O)c2c(C)csc2C(=O)OC)c(=O)n1C [Example 33] | 90 | 95 | 80 | 90 | 95 | very strong activity against weeds | 10 |  |  |  |  |  |  |
| CCCc1nn(C(=O)NS(=O)(=O)c2c(C)csc2C(=O)OC)c(=O)n1C [Example 35] |  |  |  |  |  | very strong activity against weeds | 0 | 95 | 95 | 100 | 95 |  | degree of damage to the plants (% damage vs untreated control), Poa (Poa; 60 g of ai./ha): 95%; degree of damage to the plants (% damage vs untreated control), Ambrosia (Ambrosia; 60 g of ai./ha): 95% |
| CCOC(=O)c1scc(C)c1S(=O)(=O)NC(=O)n1nc(C)n(C)c1=O [Example 65] | 80 | 95 | 80 |  | 95 | very strong activity against weeds | 20 |  |  |  |  | 80 |  |
| COc1nn(C(=O)NS(=O)(=O)c2c(C)csc2C(=O)OC(C)C)c(=O)n1C [Example 82] |  |  |  |  |  | very strong activity against weeds | 0 | 100 | 90 | 100 | 60 |  |  |
| CCOC(=O)c1scc(C)c1S(=O)(=O)NC(=O)n1nc(SC)n(C)c1=O [Example 55] | 90 | 100 | 60 | 100 | 100 | very strong activity against weeds | 10 |  |  |  |  | 100 |  |
| CCOC(=O)c1scc(C)c1S(=O)(=O)NC(=O)n1nc(OCC(F)(F)F)n(C)c1=O [Example 62] | 90 | 95 | 60 |  | 95 | very strong activity against weeds | 0 |  |  |  |  | 80 |  |
| CCOc1nn(C(=O)NS(=O)(=O)c2c(C)cccc2C(=O)OC(C)C)c(=O)n1C1CC1 [Example 46] |  |  |  |  |  | very strong activity against weeds | 0 |  |  |  |  |  | degree of damage to the plants (% damage vs untreated control), Poa (Poa; 8 g of ai./ha): 95%; degree of damage to the plants (% damage vs untreated control), Solanum (Solanum; 8 g of ai./ha): 95%; degree of damage to the plants (% damage vs untreated control), Sorghum (Sorghum; 8 g of ai./ha): 80%; degree of damage to the plants (% damage vs untreated control), Ambrosia (Ambrosia; 8 g of ai./ha): 95%; degree of damage to the plants (% damage vs untreated control), Matricaria (Matricaria; 8 g of ai./ha): 95%; degree of damage to the plants (% damage vs untreated control), Lolium (Lolium; 8 g of ai./ha): 80% |
| COC(=O)c1cccc(C)c1S(=O)(=O)NC(=O)c1noc(C)n1 [Example 9] | 80 | 95 | 60 | 95 | 90 | very strong activity against weeds | 0 |  |  |  |  | 80 |  |
| CCOc1nn(C(=O)NS(=O)(=O)c2c(C)csc2C(=O)OC)c(=O)n1CC [Example 41] |  |  |  |  |  | very strong activity against weeds | 0 | 90 | 60 | 95 | 60 |  | degree of damage to the plants (% damage vs untreated control), Poa (Poa; 60 g of ai./ha): 80%; degree of damage to the plants (% damage vs untreated control), Ambrosia (Ambrosia; 60 g of ai./ha): 95% |
| CCOC(=O)c1scc(C)c1S(=O)(=O)NC(=O)n1nc(OC)n(C)c1=O [Example 57] |  |  |  |  |  | very strong activity against weeds | 0 | 95 | 95 | 95 | 95 |  | degree of damage to the plants (% damage vs untreated control), Poa (Poa; 60 g of ai./ha): 95% |
| CCCOC(=O)c1scc(C)c1S(=O)(=O)NC(=O)n1nc(OCC)n(C2CC2)c1=O [Example 93] |  |  |  |  |  | very strong activity against weeds | 0 | 90 | 80 | 95 | 90 |  |  |
| CCOC(=O)c1scc(C)c1S(=O)(=O)NC(=O)n1nc(CC)n(OCC)c1=O [Example 61] | 95 | 95 | 80 | 100 | 95 | very strong activity against weeds | 0 |  |  |  |  | 95 |  |
| COC(=O)c1cccc(C)c1S(=O)(=O)NC(=O)c1ncc(C)o1 [Example 121] |  |  |  |  |  | very strong activity against weeds | 10 |  |  |  |  |  | degree of damage to the plants (% damage vs untreated control), Solanum (Solanum; 500 g of ai./ha): 95%; degree of damage to the plants (% damage vs untreated control), Sorghum (Sorghum; 500 g of ai./ha): 80%; degree of damage to the plants (% damage vs untreated control), Matricaria (Matricaria; 500 g of ai./ha): 90%; degree of damage to the plants (% damage vs untreated control), Lolium (Lolium; 500 g of ai./ha): 70% |
| CCOC(=O)c1scc(C)c1S(=O)(=O)NC(=O)n1nc(SCC)n(C)c1=O [Example 56] | 80 | 95 |  |  | 100 | very strong activity against weeds |  |  |  |  |  | 60 | degree of damage to the plants (% damage vs untreated control), Soya beans (Soya beans): 0% |
| COC(=O)c1scc(C)c1S(=O)(=O)NC(=O)c1noc(C)n1 [Example 13] | 80 | 90 | 70 | 95 | 95 | very strong activity against weeds | 30 |  |  |  |  | 90 |  |
